Target: T1, recombinant human caspase-3 (Homo sapiens, UniProt P42574)
T1 sequence (P42574 29-175): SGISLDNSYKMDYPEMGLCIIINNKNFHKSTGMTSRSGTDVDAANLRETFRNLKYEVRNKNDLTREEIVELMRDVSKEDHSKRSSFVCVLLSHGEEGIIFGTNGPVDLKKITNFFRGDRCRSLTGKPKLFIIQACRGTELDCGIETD
T1 sequence (P42574 176-277): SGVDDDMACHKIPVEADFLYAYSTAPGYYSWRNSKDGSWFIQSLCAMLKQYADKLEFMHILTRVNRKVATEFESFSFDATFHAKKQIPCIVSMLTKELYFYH
Test: Caspase-Glo […] luminescence assay, dose-response
Format: biochemical

SMILES | IC50 [µM]
CC(C(=O)O)c1ccc2c(c1)Cc1cccnc1O2 (stereo not drawn) [Pranoprofen] | 54.3 ± 0.6
O=C(O)c1cc(-c2ccc(F)cc2F)ccc1O [Diflunisal] | 10.4 ± 0.5
CC(C(=O)O)c1cccc(Oc2ccccc2)c1 (stereo not drawn) [Fenoprofen] | 47 ± 6.07

Source: article doi:10.1101/356956v1 (biorxiv, 2018)
